Data as given in ChEMBL document CHEMBL4665836, “Overcoming β-Lactam resistance in Pseudomonas aeruginosa using non-canonical tobramycin-based antibiotic adjuvants” (2020).

Assays:
Format in all cases: functional
Pseudomonas aeruginosa [1] = assay: Potentiation of aztreonam-induced antibacterial activity against carbapenem-resistant Pseudomonas aeruginosa 86052 clinical isolate assessed as fold reduction in aztreonam MIC at 8 uM in presence of beta-lactamase inhibitor, avi-bactam
Pseudomonas aeruginosa [2] = assay: Potentiation of aztreonam-induced antibacterial activity against carbapenem-resistant Pseudomonas aeruginosa 88949 clinical isolate assessed as fold reduction in aztreonam MIC at 8 uM in presence of beta-lactamase inhibitor, avi-bactam
Pseudomonas aeruginosa [3] = assay: Potentiation of aztreonam-induced antibacterial activity against carbapenem-resistant Pseudomonas aeruginosa 107092 clinical isolate assessed as fold reduction in aztreonam MIC at 8 uM in presence of beta-lactamase inhibitor, avi-bactam
Pseudomonas aeruginosa [4] = assay: Potentiation of aztreonam-induced antibacterial activity against carbapenem-resistant Pseudomonas aeruginosa 108590 clinical isolate assessed as fold reduction in aztreonam MIC at 8 uM in presence of beta-lactamase inhibitor, avi-bactam
Pseudomonas aeruginosa [5] = assay: Potentiation of aztreonam-induced antibacterial activity against carbapenem-resistant Pseudomonas aeruginosa 109084 clinical isolate assessed as fold reduction in aztreonam MIC at 8 uM in presence of beta-lactamase inhibitor, avi-bactam
Pseudomonas aeruginosa [6] = assay: Potentiation of imipenem-induced antibacterial activity against carbapenem-resistant Pseudomonas aeruginosa PAO200 harboring mexAB-oprM efflux deficient mutant assessed as imipenem MIC at 8 uM by checkerboard assay (reference value: 4 ug/ml)
Pseudomonas aeruginosa [7] = assay: Potentiation of imipenem-induced antibacterial activity against carbapenem-resistant Pseudomonas aeruginosa 109084 clinical isolate assessed as imipenem MIC at 8 uM by checkerboard assay (reference value: 16 ug/ml)
Pseudomonas aeruginosa [8] = assay: Potentiation of imipenem-induced antibacterial activity against carbapenem-resistant Pseudomonas aeruginosa 107092 clinical isolate assessed as imipenem MIC at 8 uM by checkerboard assay (reference value: 64 ug/ml)
Pseudomonas aeruginosa [9] = assay: Potentiation of imipenem-induced antibacterial activity against carbapenem-resistant Pseudomonas aeruginosa 88949 clinical isolate assessed as imipenem MIC at 8 uM by checkerboard assay (reference value: 64 ug/ml)
Pseudomonas aeruginosa [10] = assay: Potentiation of imipenem-induced antibacterial activity against carbapenem-resistant Pseudomonas aeruginosa 101885 clinical isolate assessed as imipenem MIC at 8 uM by checkerboard assay (reference value: 4 ug/ml)
Pseudomonas aeruginosa [11] = assay: Potentiation of imipenem-induced antibacterial activity against carbapenem-resistant Pseudomonas aeruginosa 86052 clinical isolate assessed as imipenem MIC at 8 uM by checkerboard assay (reference value: 32 ug/ml)
Pseudomonas aeruginosa [12] = assay: Potentiation of imipenem-induced antibacterial activity against carbapenem-resistant Pseudomonas aeruginosa 262-101856 clinical isolate assessed as imipenem MIC at 8 uM by checkerboard assay (reference value: 32 ug/ml)
Pseudomonas aeruginosa [13] = assay: Potentiation of imipenem-induced antibacterial activity against carbapenem-resistant Pseudomonas aeruginosa 260-97103 clinical isolate assessed as imipenem MIC at 8 uM by checkerboard assay (reference value: 16 ug/ml)
Pseudomonas aeruginosa [14] = assay: Potentiation of imipenem-induced antibacterial activity against wild-type Pseudomonas aeruginosa PAO1 assessed as imipenem MIC at 8 uM by checkerboard assay (reference value: 4 ug/ml)
Pseudomonas aeruginosa [15] = assay: Potentiation of ceftazidime-induced antibacterial activity against carbapenem-resistant Pseudomonas aeruginosa 108590 clinical isolate assessed as ceftazidime MIC at 8 uM by checkerboard assay (reference value: 32 ug/ml)
Pseudomonas aeruginosa [16] = assay: Potentiation of ceftazidime-induced antibacterial activity against carbapenem-resistant Pseudomonas aeruginosa 86052 clinical isolate assessed as ceftazidime MIC at 8 uM by checkerboard assay (reference value: 64 ug/ml)
Pseudomonas aeruginosa [17] = assay: Potentiation of ceftazidime-induced antibacterial activity against carbapenem-resistant Pseudomonas aeruginosa 100036 clinical isolate assessed as ceftazidime MIC at 8 uM by checkerboard assay (reference value: 8 ug/ml)
Pseudomonas aeruginosa [18] = assay: Potentiation of ceftazidime-induced antibacterial activity against carbapenem and colistin-resistant Pseudomonas aeruginosa 91433 clinical isolate assessed as ceftazidime MIC at 8 uM by checkerboard assay (reference value: 4 ug/ml)
Pseudomonas aeruginosa [19] = assay: Potentiation of ceftazidime-induced antibacterial activity against carbapenem-resistant Pseudomonas aeruginosa 262-101856 clinical isolate assessed as ceftazidime MIC at 8 uM by checkerboard assay (reference value: 16 ug/ml)
Pseudomonas aeruginosa [20] = assay: Potentiation of aztreonam-induced antibacterial activity against carbapenem-resistant Pseudomonas aeruginosa 109084 clinical isolate assessed as aztreonam MIC at 8 uM by checkerboard assay (reference value: 64 ug/ml)
Pseudomonas aeruginosa [21] = assay: Potentiation of aztreonam-induced antibacterial activity against carbapenem-resistant Pseudomonas aeruginosa 107092 clinical isolate assessed as aztreonam MIC at 8 uM by checkerboard assay (reference value: 64 ug/ml)
Pseudomonas aeruginosa [22] = assay: Potentiation of aztreonam-induced antibacterial activity against carbapenem and colistin-resistant Pseudomonas aeruginosa 114228 clinical isolate assessed as aztreonam MIC at 8 uM by checkerboard assay (reference value: 32 ug/ml)
Pseudomonas aeruginosa [23] = assay: Potentiation of aztreonam-induced antibacterial activity against carbapenem and colistin-resistant Pseudomonas aeruginosa 101243 clinical isolate assessed as aztreonam MIC at 8 uM by checkerboard assay (reference value: 32 ug/ml)
Pseudomonas aeruginosa [24] = assay: Potentiation of aztreonam-induced antibacterial activity against carbapenem and colistin-resistant Pseudomonas aeruginosa 91433 clinical isolate assessed as aztreonam MIC at 8 uM by checkerboard assay (reference value: 16 ug/ml)
Pseudomonas aeruginosa [25] = assay: Potentiation of aztreonam-induced antibacterial activity against carbapenem-resistant Pseudomonas aeruginosa 264-104354 clinical isolate assessed as aztreonam MIC at 8 uM by checkerboard assay (reference value: 32 ug/ml)
Pseudomonas aeruginosa [26] = assay: Potentiation of aztreonam-induced antibacterial activity against carbapenem-resistant Pseudomonas aeruginosa 259-96918 clinical isolate expressing metallo-beta-lactamase assessed as aztreonam MIC at 8 uM by checkerboard assay (reference value: 32 ug/ml)
Pseudomonas aeruginosa [27] = assay: Potentiation of aztreonam-induced antibacterial activity against wild type Pseudomonas aeruginosa PAO1 assessed as aztreonam MIC at 8 uM by checkerboard assay (reference value: 4 ug/ml)
Pseudomonas aeruginosa [28] = assay: Potentiation of piperacillin-induced antibacterial activity against wild type Pseudomonas aeruginosa PAO1 assessed as piperacillin MIC at 8 uM by checkerboard assay (reference value: 8 ug/ml)
Pseudomonas aeruginosa [29] = assay: Antibacterial activity against Pseudomonas aeruginosa PAO750 harboring mexAB-oprM/mexCD-oprJ/mexEF-oprN/mexJK/mexXY/opmH efflux deficient mutant
Pseudomonas aeruginosa [30] = assay: Antibacterial activity against Pseudomonas aeruginosa PAO200 harboring mexAB-oprM efflux deficient mutant
Pseudomonas aeruginosa [31] = assay: Antibacterial activity against wild type Pseudomonas aeruginosa PAO1
Pseudomonas aeruginosa [32] = assay: Potentiation of ceftazidime-induced antibacterial activity against carbapenem-resistant Pseudomonas aeruginosa 259-96918 clinical isolate expressing metallo-beta-lactamase assessed as ceftazidime MIC at 8 uM by checkerboard assay (reference value: 512 ug/ml)
Pseudomonas aeruginosa [33] = assay: Potentiation of aztreonam-induced antibacterial activity against wild type Pseudomonas aeruginosa PAO1 assessed as fold reduction in aztreonam MIC at 8 uM
Pseudomonas aeruginosa [34] = assay: Potentiation of ceftazidime-induced antibacterial activity against wild type Pseudomonas aeruginosa PAO1 assessed as fold reduction in ceftazidime MIC at 8 uM

SMILES | fold change (FC) (Pseudomonas aeruginosa [1]) | fold change (FC) (Pseudomonas aeruginosa [2]) | fold change (FC) (Pseudomonas aeruginosa [3]) | fold change (FC) (Pseudomonas aeruginosa [4]) | fold change (FC) (Pseudomonas aeruginosa [5]) | MIC (Pseudomonas aeruginosa [6]) | MIC (Pseudomonas aeruginosa [7]) | MIC (Pseudomonas aeruginosa [8]) | MIC (Pseudomonas aeruginosa [9]) | MIC (Pseudomonas aeruginosa [10]) | MIC (Pseudomonas aeruginosa [11]) | MIC (Pseudomonas aeruginosa [12]) | MIC (Pseudomonas aeruginosa [13]) | MIC (Pseudomonas aeruginosa [14]) | MIC (Pseudomonas aeruginosa [28]) | MIC (Pseudomonas aeruginosa [29]) | MIC (Pseudomonas aeruginosa [30]) | MIC (Pseudomonas aeruginosa [31]) | fold change (FC) (Pseudomonas aeruginosa [33]) | fold change (FC) (Pseudomonas aeruginosa [34]) | also measured
N=C(N)NC[C@H]1O[C@H](O[C@H]2[C@H](OCCCCCCCCCCCCN3CCN(c4cc5c(cc4F)c(=O)c(C(=O)O)cn5C4CC4)CC3)[C@@H](O[C@H]3O[C@H](CO)[C@@H](O)[C@H](NC(=N)N)[C@H]3O)[C@H](NC(=N)N)C[C@@H]2NC(=N)N)[C@H](NC(=N)N)C[C@@H]1O.O=C(O)C(F)(F)F.O=C(O)C(F)(F)F.O=C(O)C(F)(F)F.O=C(O)C(F)(F)F.O=C(O)C(F)(F)F.O=C(O)C(F)(F)F | 16 | 16 | 16 | 16 | 16 | 2 µg/mL | 16 µg/mL | 32 µg/mL | 64 µg/mL | 2 µg/mL | 16 µg/mL | 16 µg/mL | 8 µg/mL | 1 µg/mL | 8 µg/mL | 16 µg/mL | 16 µg/mL | 32 µg/mL | 2 | 2 | MIC (Pseudomonas aeruginosa [15]): 2 µg/mL; MIC (Pseudomonas aeruginosa [16]): 32 µg/mL; MIC (Pseudomonas aeruginosa [17]): 6 µg/mL; MIC (Pseudomonas aeruginosa [18]): 4 µg/mL; MIC (Pseudomonas aeruginosa [19]): 16 µg/mL; MIC (Pseudomonas aeruginosa [20]): 32 µg/mL; MIC (Pseudomonas aeruginosa [21]): 32 µg/mL; MIC (Pseudomonas aeruginosa [22]): 8 µg/mL; MIC (Pseudomonas aeruginosa [23]): 4 µg/mL; MIC (Pseudomonas aeruginosa [24]): 16 µg/mL; MIC (Pseudomonas aeruginosa [25]): 32 µg/mL; MIC (Pseudomonas aeruginosa [26]): 32 µg/mL; MIC (Pseudomonas aeruginosa [27]): 0.5 µg/mL; MIC (Pseudomonas aeruginosa [32]): 512 µg/mL
NC[C@H]1O[C@H](O[C@H]2[C@H](OCCCCCCCCN3CCCNCCNCCCNCC3)[C@@H](O)[C@H](N)C[C@@H]2N)[C@H](N)C[C@@H]1O.O=C(O)C(F)(F)F.O=C(O)C(F)(F)F.O=C(O)C(F)(F)F.O=C(O)C(F)(F)F.O=C(O)C(F)(F)F.O=C(O)C(F)(F)F.O=C(O)C(F)(F)F.O=C(O)C(F)(F)F | 16 | 16 | 16 | 16 | 16 | 2 µg/mL | 16 µg/mL | 32 µg/mL | 64 µg/mL | 2 µg/mL | 16 µg/mL | 16 µg/mL | 8 µg/mL | 4 µg/mL | 2 µg/mL | > 128 µg/mL | > 128 µg/mL | > 128 µg/mL | 2 | 2 | MIC (Pseudomonas aeruginosa [15]): 16 µg/mL; MIC (Pseudomonas aeruginosa [16]): 64 µg/mL; MIC (Pseudomonas aeruginosa [17]): 4 µg/mL; MIC (Pseudomonas aeruginosa [18]): 2 µg/mL; MIC (Pseudomonas aeruginosa [19]): 16 µg/mL; MIC (Pseudomonas aeruginosa [20]): 32 µg/mL; MIC (Pseudomonas aeruginosa [21]): 32 µg/mL; MIC (Pseudomonas aeruginosa [22]): 16 µg/mL; MIC (Pseudomonas aeruginosa [23]): 2 µg/mL; MIC (Pseudomonas aeruginosa [24]): 8 µg/mL; MIC (Pseudomonas aeruginosa [25]): 16 µg/mL; MIC (Pseudomonas aeruginosa [26]): 8 µg/mL; MIC (Pseudomonas aeruginosa [27]): 0.5 µg/mL; MIC (Pseudomonas aeruginosa [32]): 128 µg/mL
Cl.Cl.Cl.Cl.Cl.Cl.NC[C@H]1O[C@H](O[C@H]2[C@H](OCCCCCCCCCCCCN3CCN(c4cc5c(cc4F)c(=O)c(C(=O)O)cn5C4CC4)CC3)[C@@H](O[C@H]3O[C@H](CO)[C@@H](O)[C@H](N)[C@H]3O)[C@H](N)C[C@@H]2N)[C@H](N)C[C@@H]1O | 16 | 16 | 16 | 16 | 16 | 1 µg/mL | 8 µg/mL | 8 µg/mL | 8 µg/mL | 2 µg/mL | 8 µg/mL | 4 µg/mL | 2 µg/mL | 0.5 µg/mL | 2 µg/mL | 2 µg/mL | 4 µg/mL | 32 µg/mL | 2 | 2 | MIC (Pseudomonas aeruginosa [15]): 0.5 µg/mL; MIC (Pseudomonas aeruginosa [16]): 32 µg/mL; MIC (Pseudomonas aeruginosa [17]): 2 µg/mL; MIC (Pseudomonas aeruginosa [18]): 2 µg/mL; MIC (Pseudomonas aeruginosa [19]): 4 µg/mL; MIC (Pseudomonas aeruginosa [20]): 16 µg/mL; MIC (Pseudomonas aeruginosa [21]): 8 µg/mL; MIC (Pseudomonas aeruginosa [22]): 2 µg/mL; MIC (Pseudomonas aeruginosa [23]): 4 µg/mL; MIC (Pseudomonas aeruginosa [24]): 4 µg/mL; MIC (Pseudomonas aeruginosa [25]): 8 µg/mL; MIC (Pseudomonas aeruginosa [26]): 8 µg/mL; MIC (Pseudomonas aeruginosa [27]): 0.25 µg/mL; MIC (Pseudomonas aeruginosa [32]): 64 µg/mL
NC[C@H]1O[C@H](O[C@H]2[C@H](OCCCCCCCCN3CCCNCCNCCCNCC3)[C@@H](O[C@H]3O[C@H](CO)[C@@H](O)[C@H](N)[C@H]3O)[C@H](N)C[C@@H]2N)[C@H](N)C[C@@H]1O.O=C(O)C(F)(F)F.O=C(O)C(F)(F)F.O=C(O)C(F)(F)F.O=C(O)C(F)(F)F.O=C(O)C(F)(F)F.O=C(O)C(F)(F)F.O=C(O)C(F)(F)F.O=C(O)C(F)(F)F.O=C(O)C(F)(F)F | 16 | 16 | 16 | 16 | 16 | 2 µg/mL | 8 µg/mL | 16 µg/mL | 32 µg/mL | 2 µg/mL | 16 µg/mL | 16 µg/mL | 8 µg/mL | 2 µg/mL | 2 µg/mL | 128 µg/mL | > 128 µg/mL | > 128 µg/mL | 2 | 2 | 
